≈ marks a conversion by molar mass, not a printed value.
Experiments:
A549-T12 = test: Annexin V-FLOUS / PI flow cytometry for apoptosis, Taxol-resistant cells; type: cell-based; details: Homo sapiens, 48 hours, untreated group 6.8%, read-out: ratio of apoptotic tumor cell
Excerpt: (§1) The following embodiments are described with Taxol-resistant tumor cell A549-T12 (passage cultured from lung cancer cell line A549 cells with low concentration of taxol) as an example to test the effect of BS-A and its pure compounds (these represent chaihulactone and chaihulactone analogues). Flow cytometry, cytotoxicity, and biomolecular examinations are adopted to estimate the mechanism of Bupleurum scorzonerifolium extracts on Taxol-resistant tumor cells.
FIGs. […] Among these figures, X-axis represents the fluorescent brightness of tumor cells with antibody Annexin V-FLOUS whereas Y-axis represents the fluorescent brightness of tumor cell with antibody PI. […] This indicates isochaihulactone has better induction for apoptosis of Taxol-resistant tumor cell line than other chaihulactone analogues.

tumor cells = details: in two years; initial treatment stage; cited from earlier work
A549 cells [1] = test: Cell cycle analysis by flow cytometry (PI); type: cell-based, human; details: FIG. 4; concentration not given
Description: Furthermore, flow cytometry is employed to observe the changes in cell cycle before and after the addition of different extracts from Bupleurum scorzonerifolium to A549 cells. In figures 2A through to 2D, X-axis represents chromosome numbers (2N, 4N, etc.) of tumor cells in contact with the antibody, Y-axis represents the fluorescent brightness of Propidium Iodide (PI). It is clearly noted that before treatment lung cancer cell line A549 is mainly at stage of G0/G1, but when 60 µg/ml of BS-AE and 600 µg/ml of BS-ME are added to the tumor cells, the tumor cells are arrested at G2/M stage. This is particularly the case for BS-ME.

p21 = test: Western blotting of tumor suppressor p21; type: cell-based, human; details: A549 cells, FIG. 5, 1 day or 3 days
β-tubulin = test: Immunoblot of soluble and particular (polymerized) β-tubulin in A549 cells; type: cell-based, human; details: FIG. 7
[2] = system: human hepatoma cell line J5, ovarian cancer cell line OVCAR-3, human malignant glioblastoma cell line DBTRG-05MD, lung cancer cell line A549 and colorectal …; test: MTT cytotoxicity screening of extracts and components on a tumor cell line panel; type: cell-based; details: MTT assay / drug screening; Table 1 cited but not given
Description: Each of the aforementioned heterocyclic compounds from each extract as well as the acetone crude extracts of Bupleurum scorzonerifolium are assayed to measure the antineoplastic activity. It was shown that majority of antineoplastic components of Bupleurum scorzonerifolium are retained in the BS-AE and BS-ME. The BS-HE and BS-CE hardly have any tumor-suppressing effects. Besides, the extracts can be further purified using chromatography method (e.g. low pressure liquid chromatography or high performance liquid chromatography (HPLC)), such that fractions are collected separately after each elution to obtain the pure compounds mentioned above.
Moreover, from chemical analysis of the main representative molecular structure of the eighth component, it was observed that the compound shares a common feature shown in formula (I) as having a γ-butyrolactone-centred heterocyclic compound with Z configuration or E configuration at carbon 2(5), or pharmacologically compatible salts, esters, ketones or their derivatives. [drawing 19] where the heterocyclic compound may have a 3R or 3S configuration, X can be N, O, S, or Se, andA, B can be selected from the following substituents: [drawing 20] where R1, R2, R3, R4, R5 can be selected from hydrogen atom, a halogen atom, a hydroxyl group, a sulfoxyl group, an amino group, a methoxyl group, and a nitro group. […]

A549 cells [3] = test: Annexin V-FLOUS / PI flow cytometry for apoptosis; type: cell-based; details: Homo sapiens, 48 hours, untreated group 3.8%, read-out: proportion of cell death (apoptosis)
Description: In A549 cells, 20 µM of Isochaihulactone and 60 µg/ml of BS-AE are added to A549 cell line. After 48 hours of treatment, flow cytometry is utilized to detect the staining results between Annexin V-FLOUS and PI. In FIGs. 3A through to 3C, X-axis represents the fluorescent brightness of tumor cells with antibody Annexin V-FLOUS, and Y-axis represents the fluorescent brightness of tumor cells with antibody PI. From the diagrams, it was shown that the untreated group has only 3.8% of apoptosis, whereas A549 cells treated with Isochaihulactone and BS-AE has much higher proportion of cell death (about 30-40%).

A549-T12 cells = test: MTT cytotoxicity assay on Taxol-resistant lung cancer cells; type: cell-based; details: Taxol-resistant human lung cancer cell line A549-T12; read-out: concentration that causes 50% growth inhibition (IC50)
Excerpt: On the other hand, when the BS-AE containing γ-butyrolactone heterocyclic compounds, such as isochaihulactone and BS-AE are applied on Taxol-resistant tumor cell line, for example, human lung cancer cell line A549-T12, they also show anti-tumor effects on the resistant tumor cells. […] Furthermore, the tumor-suppressing effects of those Bupleurum scorzonerifolium extracts after isolated by the extraction method of this invention are more prominent.
as §1
Furthermore, a lower dose (2-4 µg/ml) of isochaihulactone is required to induce apoptosis on A549-T12 cells than that of A549 cells (8-10 µg/ml).

p53 = test: Western blotting of tumor suppressor p53; type: cell-based, human; details: A549 cells, FIG. 5, 1 day or 3 days

| Structure (SMILES) | cytotoxicity at 8 µg/mL (A549-T12) | improvement of survival rate of the patient (tumor cells) | cell cycle stage of tumor cells (A549 cells [1]) | expression level of tumor suppressor p21 (p21) | particular form (polymerized β-microtubule) (β-tubulin) | soluble form (non-polymerized β-microtubule) (β-tubulin) | antineoplastic effect (comparison among extracts and components) [2] | cytotoxicity at 20 µM (A549 cells [3]) | IC50 (A549-T12 cells) | expression level of tumor suppressor p53 (p53) |
| --- | --- | --- | --- | --- | --- | --- | --- | --- | --- | --- |
| COc1ccc(/C=C2\C(=O)OC[C@@H]2Cc2ccc3c(c2)OCO3)cc1OC [BS-15, Isokaerophyllin] | 23.1% | – | – | – | – | – | – | – | – | – |
| CC(=O)O[C@H]1C(=O)[C@@]2(C)[C@H]([C@H](OC(=O)c3ccccc3)[C@]3(O)C[C@H](OC(=O)[C@H](O)[C@@H](NC(=O)c4ccccc4)c4ccccc4)C(C)=C1C3(C)C)[C@]1(OC(C)=O)CO[C@@H]1C[C@@H]2O [Taxol, Paclitaxel] | – | about 15% | – | – | – | – | – | – | – | – |
| COc1cc(/C=C2\C(=O)OC[C@@H]2Cc2ccc3c(c2)OCO3)cc(OC)c1OC [isochaihulactone, Isochaihulactone] | 30.6% | – | arrest at the stage G2/M | increase in expression level | increases | significantly diminishes | most prominent anti-tumor effects | 30 to 40% | 2 to 4 µg/mL (≈ 5.02 to 10 µM) | increase in expression level |

Reference: patent EP1527784B1, “Method for extracting antineoplastic components from Bupleurum scorzonerifolium and composition comprising lactones” (Buddhist Tzu Chi General Hospital, priority 2003, dated 2005)
